Measured values reported in US20090131302A1, “Transient receptor potential vanilloid 1 and uses thereof” (priority 2007, published 2009).

Assays:
colon = settings: rat, in vivo
Experimental: Colons were divided into proximal, middle and distal segments; portions of each segment were placed in 10% buffered formalin and portions were frozen in liquid nitrogen. Haematoxilin & Eosin stained parafin sections were scored for inflammation by a pathologist as described.^21 Myeloperoxidase (MPO) assays were performed as described.^22 Protein was measured by the BCA method (Pierce, Rockford, Ill.). Activity was expressed as the change in absorbance/min/mg protein. Cytokine levels were measured in colon extracts using the Biorad Bioplex assay procedure and normalized to protein.
To rule out the possibility that the sensitizing effects of neonatal acetic acid exposure were due to inflammation/injury of the colon, the colons of P10 pups were examined.
To determine whether persistent hypersensitivity achieved in neonatal acetic acid treated rats was due to the development of a chronic colitis in adult, H&E stained sections of the colons of 8 weeks old adult rats were examined for histopathological signs of inflammation, myoloperoxidase (MPO) activity and inflammatory cytokine levels. […] Since mast cells can affect both motility and sensitivity, mast cells in proximal, middle and distal colon were counted.

TRPV1 = tested on: TRPV1
Experimental: Tissues for western blot or RNA extraction were immediately frozen on dry ice and were stored at −80 until further analysis. Tissues were homogenized in extract buffer; 1% NP40, 10% glycerol, 20 mM Tris HCl […], 100 mM NaCl, 50 mM NaF, 2 mM EDTA, 1 mM EGTA, 25 mM b-glycerophosphate, 2 mM sodium pyrophosphate, 1 mM sodium orthovanadate, 1 mM phenylmethylsulfonyl fluoride and Protease Inhibitor Cocktail, 1/100 (Sigma). Proteins were resolved on 7.5% SDS-PAGE gels, transferred to PVDF membranes (BioRad), and incubated with an anti-TRPV1 antibody (PC420, Invitrogen) at 1/500. Bound antibodies were detected by ECL kit (Amersham Pharmacia Biotech, Piscataway, N.J.). The membranes were exposed to X-ray films and subsequently stripped and re-probed with a b-III-tubulin antibody (1/1000, Promega). Films were converted to TIFF image files using a HP scanner, and the TRPV1 and b-III-tubulin bands were quantified using OptiQuant software (Packard). Data was expressed as the ratio of TRPV1 to b-III-tubulin band intensity.
RNA was extracted from frozen DRG using Triozol (Invitrogen). Starting with […] of RNA, two-step quantitative RT-PCR was performed using Applied Biosystems reagents and kits. The following forward and reverse primer and probe sequences were used: TRPV1: […] (SEQ ID NO: 2), […] (SEQ ID NO: 3); b-III-tubulin: […] (SEQ ID NO: 4), […] (SEQ ID NO: 5), […] (SEQ ID NO: 6). TAQMAN PCR was performed on an Applied Biosystems 5700. Relative changes in TRPV1 mRNA levels were calculated by the DDCt method using b-III-tubulin as a normalizer. No RT reactions were performed as controls.
The lipid soluble fluorescent dye, DiI (1,1′-dioleyl-3,3,3′,3-tetramethylindocarbocyanine methanesulfonate, Invitrogen), 25 mg in 0.5 ml methanol, was injected in 2 μl volumes at 8-10 sites on the exposed colon from the level of the bladder to 6 cm oral. After one to two weeks, rats were perfused transcardially with 150 ml phosphate buffered saline (PBS) followed by 400 ml ice cold 4% paraformaldehyde in PBS. Dorsal root ganglia, T12 to S2 were removed and were post-fixed one hour in PFA and cryoprotected overnight in 20% sucrose in PBS. 10 micron sections on plus slides were incubated sequentially with TRPV1 antibody (PC420, Invitrogen, 1/200) and then with anti-rabbit Alexa Fluor 488 (Invitrogen, 1/200). Sections were viewed using a BX60 Olympus microscope equipped with filter cubes appropriate for DiI (Rhodamine filter) and appropriate band pass and barrier filter for Alexa-488. Images were captured and were analyzed using Metaview software. To ensure that a neuron is counted only once, serial sections were placed on consecutive slides with at least 50 microns between sections on the same slide.
To determine whether TRPV1 expression was altered in adult rats that were sensitized with acetic acid as neonates, TRPV1 expression in DRG containing colon afferents and in the spinal cord was measured.
TRPV1 and BDNF mRNA expression was measured in S1 DRG isolated from adult rats that were treated with acetic acid or saline as neonates by quantitative RT-PCR. […] To increase the sensitivity and specificity of this gene expression assay, measurements will be made in colon afferent neurons identified by uptake of the retrograde label fluorogold and isolated by laser capture microdissection (LCM) (FIG. 11).

colon DRG neurons = tested on: colon DRG neurons
Experimental: To determine whether the sensitivity of colon DRG neurons was altered in eight weeks old rats in this model, action potential threshold (rheobase) and firing frequency of acutely dissociated lumbar/sacral (LS), and thoracolumbar (TL) colon DRG neurons, identified by the presence of the retrograde label DiI, were measured in current clamp experiments.

MAPK = settings: pups one hour after infusion
Experimental: To determine whether acetic acid infusion of the colons of 10 days old pups activated MAPK in DRG containing soma of colon afferents, combined lumbar/sacral (LS) and thoracolumbar (TL) DRG from 4 pups/treatment group were assayed for p-p38 or ERK (p-p42/p-p44) content by western blot 1 hour after acetic acid infusion. Cervical (CE) DRG from the same animals were examined as an internal control for specificity of stimulation.

colon of P10 rats = settings: 0.5% into colon at P10, vs saline
Experimental: To treat neonatal rats with capsaicin, ten day old rat pups received an infusion of 0.2 mls of 50 mg/ml capsaicin or 0.2 mls vehicle: 10% ethanol, 10% Tween 20, 80% saline or were left unmanipulated. Visceral sensitivity and inflammatory parameters were measured in these rats between 8 and 12 weeks of age. […] After 4 weeks, rats were tested for sensitivity to colorectal distention.
Visceral hypersensitivity was measured by grading the response of rats to colorectal distention as previously described.^11 Briefly, under mild sedation with 1% Brevital (Eli Lily & Co Indianapolis, Ind.) 25 mg/kg i.p.), a flexible balloon (5 cm) constructed from a surgical glove finger attached to a tygon tubing was inserted 8 cm into the descending colon and rectum via the anus and held in place by taping the tubing to the tail. […] Pressure was measured using a sphygmomanometer connected to a pressure transducer. […] Behavioral responses to colorectal distention were measured by visual observation of the abdominal withdrawal reflex by blinded observer and the assignment of an AWR score as follows: 1=Normal behavior without response 2=Contraction of abdominal muscles; 3=Lifting of abdominal wall; 4=Body arching and lifting of pelvic structures. […]
Data is expressed as mean+/−standard error of the mean (SE).

colon of adult rats = settings: 1 ml of 5% into descending colon at 8 weeks; tested after 4 weeks; 50-80 mm Hg; vs saline
Experimental: For neonatal sensitization, rats were obtained as litters of 4 days old pups. […] To treat neonatal rats with capsaicin, ten day old rat pups received an infusion of 0.2 mls of 50 mg/ml capsaicin or 0.2 mls vehicle: 10% ethanol, 10% Tween 20, 80% saline or were left unmanipulated. Visceral sensitivity and inflammatory parameters were measured in these rats between 8 and 12 weeks of age. […] After 4 weeks, rats were tested for sensitivity to colorectal distention.
The abdominal withdrawal reflex represents a characteristic set of behaviors produced by involuntary motor reflexes that are activated by colorectal distention. Visceral hypersensitivity was measured by grading the response of rats to colorectal distention as previously described.^11 Briefly, under mild sedation with 1% Brevital (Eli Lily & Co Indianapolis, Ind.) 25 mg/kg i.p.), a flexible balloon (5 cm) constructed from a surgical glove finger attached to a tygon tubing was inserted 8 cm into the descending colon and rectum via the anus and held in place by taping the tubing to the tail. Rats were placed in small Lucite cubicles (20×8×8 cm) (Bioengineering Department, UTMB) and were allowed to adapt for 30 minutes. CRD was performed by rapidly inflating the balloon to constant pressure. Pressure was measured using a sphygmomanometer connected to a pressure transducer. […]

[1] = adult rats sensitized as neonates vs controls
[2] = quantitative RT-PCR, vs P10 saline

SMILES: CC(=O)O [acetic acid]
- IFN-g in proximal colon, relative to saline (colon): 1.5 fold
- MPO activity in proximal, middle and distal colon (colon): no significant increases in activity
- MPO values in colon of pups (colon): not significantly different
- histology of colon of pups (colon): No histological signs of inflammation or tissue destruction
- histopathological examination of adult colon (colon): no evidence of inflammation or abnormalities in structure
- levels of pro-inflammatory cytokines (IL-1b, IL-1a, IL-2, IL-6, TNF-a, IFN-g) (colon): no significant differences
- mast cell counts, distal colon (colon): 9.3 SE 4.1 number of mast cells per high-powered field
- mast cell counts, middle colon (colon): 7.7 SE 1.2 number of mast cells per high-powered field
- mast cell counts, proximal colon (colon): 6.3 SE 3.4 number of mast cells per high-powered field
- TRPV1 protein expression in the spinal cord (TRPV1; adult rats sensitized as neonates): No change
- TRPV1 mRNA in TL DRG (TRPV1; [1]): no change
- TRPV1 mRNA increase in LS DRG (TRPV1; [1]): 1.9 fold
- TRPV1 protein expression in whole DRG extracts (TRPV1; both TL and LS DRG, adult rats sensitized as neonates): significantly increased
- colon DRG neurons (DiI) expressing TRPV1 immunoreactivity, LS DRG (TRPV1; control 38.8%): 54.0%
- colon DRG neurons (DiI) expressing TRPV1 immunoreactivity, TL DRG (TRPV1; control 40.6%): 67.3%
- BDNF mRNA expression increase in S1 DRG (TRPV1; [2]): 1.9 fold
- TRPV1 mRNA expression increase in S1 DRG (TRPV1; [2]): 1.9 fold
- average rheobase, TL colon DRG neurons (colon DRG neurons; 8 weeks old rats treated at P10, control 0.47): 0.29 nA
- average rheobase, LS colon DRG neurons (colon DRG neurons; 8 weeks old rats treated at P10, control 0.56): 0.21 nA
- number of action potentials elicited by current injection at 2x the rheobase, LS neurons (colon DRG neurons; control 1.2): 1.8
- p-p38 in TL or CE DRG (MAPK): No large changes
- p-p42 in LS DRG (MAPK): no change
- p-p44 in LS DRG (MAPK): seven-fold increase
- p-ERK increase in TL DRG (MAPK; also seen with saline): 3-5 fold
- p-p38 in LS DRG (MAPK; vs saline and unmanipulated): three-fold increase
- EMG activity in response to graded colorectal distention (colon of P10 rats; adult, 40 and 60 mm Hg): significantly higher
- AWR scores in response to colorectal distention (colon of P10 rats; tested at 8 weeks): higher mean AWR scores at all distention pressures
- AWR grades in response to colorectal distention (colon of adult rats): No significant differences
